# Assay results: patent publication US10167262B2, “Herbicidal substituted 3-arylpyrazoles” (FMC CORPORATION, priority 2014, dated 2019)
# Assays:
# Type in all cases: in vivo
# [1] = test system: johnsongrass (Sorghum halepense); test: Test C pre-/postemergence greenhouse test, plant response rating 0-100; conditions: Postemergence; for Plant response rating, Johnsongrass: 250 g ai/ha, scale 0 to 100
# In short: (§1)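 Plants were scored visually against controls 13–15 days after treatment on a 0–100 scale, 100 meaning complete control. Test chemicals, formulated in surfactant-containing non-phytotoxic solvent, went preemergence onto seeds in loam–sand blend or postemergence onto 1- to 4-leaf plants (2–18 cm) grown in peat-based mix.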
# [2] = test system: lambsquarters (Chenopodium album); test: as above; conditions: Postemergence; for Plant response rating, Lambsquarters: 250 g ai/ha, scale 0 to 100
# In short: as §1
# soybean (Glycine max) = test: as above; conditions: Postemergence; for Plant response rating, Soybean: 250 g ai/ha, scale 0 to 100
# In short: as §1
# [3] = test system: blackgrass (Alopecurus myosuroides); test: as above; conditions: Postemergence; for Plant response rating, Blackgrass: 250 g ai/ha, scale 0 to 100;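 on all read-outs here: 0 is no effect and 100 is complete control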
# In short: as §1
# [4] = test system: galium (catchweed bedstraw, Galium aparine); test: as above; conditions: Postemergence; for Plant response rating, Galium: 250 g ai/ha, scale 0 to 100
# In short: as §1
# [5] = test system: large (Lg) crabgrass (Digitaria sanguinalis); test: as above; conditions: Postemergence; for Plant response rating, Crabgrass, Large: 250 g ai/ha, scale 0 to 100
# In short: as §1
# [6] = test system: morningglory (Ipomoea coccinea); test: as above; conditions: Postemergence; for Plant response rating, Morningglory: 250 g ai/ha, scale 0 to 100
# In short: as §1
# [7] = test system: winter wheat (Triticum aestivum); test: as above; conditions: Postemergence; for Plant response rating, Wheat: 250 g ai/ha, scale 0 to 100
# In short: as §1
# [8] = test system: yellow nutsedge (Cyperus esculentus); test: as above; conditions: Postemergence; for Plant response rating, Nutsedge, Yellow: 250 g ai/ha, scale 0 to 100
# In short: as §1
# [9] = test system: giant foxtail (Setaria faberii); test: as above; conditions: Postemergence; for Plant response rating, Foxtail, Giant: 250 g ai/ha, scale 0 to 100
# In short: as §1
# [10] = test system: chickweed (common chickweed, Stellaria media); test: Test C postemergence greenhouse test, plant response rating 0-100; conditions: for Plant response rating, Chickweed: 250 g ai/ha, scale 0 to 100
# In short: (§2)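 Postemergence spray onto 1–4-leaf potted seedlings, greenhouse incubation 13–15 days. Visual percent-control rating (0–100) against untreated plants.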
# kochia (Kochia scoparia) = test: as above; conditions: for Plant response rating, Kochia: 250 g ai/ha, scale 0 to 100
# In short: as §2
# wild oat (Avena fatua) = test: as above; conditions: for Plant response rating, Oat, Wild: 250 g ai/ha, scale 0 to 100
# In short: as §2
structure (smiles),measurement,setting,value
CCn1cc(C(=NN2CCCC2)c2ccccc2)c(-c2cc(Cl)cc(Cl)c2)n1 [Compound 37],"Plant response rating (0 to 100), Johnsongrass",[1]; 62 g ai/ha,0
same,"Plant response rating (0 to 100), Johnsongrass",[1]; 125 g ai/ha,0
same,"Plant response rating, Johnsongrass",[1],0
same,"Plant response rating (0 to 100), Lambsquarters",[2]; 62 g ai/ha,45
same,"Plant response rating (0 to 100), Lambsquarters",[2]; 125 g ai/ha,55
same,"Plant response rating, Lambsquarters",[2],65
same,"Plant response rating (0 to 100), Soybean",soybean (Glycine max); 62 g ai/ha,5
same,"Plant response rating (0 to 100), Soybean",soybean (Glycine max); 125 g ai/ha,5
same,"Plant response rating, Soybean",soybean (Glycine max),5
same,"Plant response rating (0 to 100), Blackgrass",[3]; 31 g ai/ha,0
same,"Plant response rating (0 to 100), Blackgrass",[3]; 62 g ai/ha,0
same,"Plant response rating (0 to 100), Blackgrass",[3]; 125 g ai/ha,0
same,"Plant response rating, Blackgrass",[3],0
same,"Plant response rating (0 to 100), Galium",[4]; 31 g ai/ha,0
same,"Plant response rating (0 to 100), Galium",[4]; 62 g ai/ha,0
same,"Plant response rating (0 to 100), Galium",[4]; 125 g ai/ha,0
same,"Plant response rating, Galium",[4],0
same,"Plant response rating (0 to 100), Crabgrass, Large",[5]; 31 g ai/ha,10
same,"Plant response rating (0 to 100), Crabgrass, Large",[5]; 62 g ai/ha,10
same,"Plant response rating (0 to 100), Crabgrass, Large",[5]; 125 g ai/ha,10
same,"Plant response rating, Crabgrass, Large",[5],10
same,"Plant response rating (0 to 100), Morningglory",[6]; 62 g ai/ha,0
same,"Plant response rating (0 to 100), Morningglory",[6]; 125 g ai/ha,0
same,"Plant response rating, Morningglory",[6],0
same,"Plant response rating (0 to 100), Wheat",[7]; 62 g ai/ha,0
same,"Plant response rating (0 to 100), Wheat",[7]; 125 g ai/ha,0
same,"Plant response rating, Wheat",[7],0
same,"Plant response rating (0 to 100), Nutsedge, Yellow",[8]; 62 g ai/ha,10
same,"Plant response rating (0 to 100), Nutsedge, Yellow",[8]; 125 g ai/ha,10
same,"Plant response rating, Nutsedge, Yellow",[8],10
same,"Plant response rating (0 to 100), Foxtail, Giant",[9]; 31 g ai/ha,0
same,"Plant response rating (0 to 100), Foxtail, Giant",[9]; 62 g ai/ha,0
same,"Plant response rating (0 to 100), Foxtail, Giant",[9]; 125 g ai/ha,25
same,"Plant response rating, Foxtail, Giant",[9],25
same,"Plant response rating (0 to 100), Chickweed",[10]; 31 g ai/ha,70
same,"Plant response rating (0 to 100), Chickweed",[10]; 125 g ai/ha,70
same,"Plant response rating, Chickweed",[10],75
same,"Plant response rating (0 to 100), Kochia",kochia (Kochia scoparia); 62 g ai/ha,15
same,"Plant response rating (0 to 100), Kochia",kochia (Kochia scoparia); 125 g ai/ha,15
same,"Plant response rating, Kochia",kochia (Kochia scoparia),35
same,"Plant response rating (0 to 100), Oat, Wild",wild oat (Avena fatua); 62 g ai/ha,0
same,"Plant response rating (0 to 100), Oat, Wild",wild oat (Avena fatua); 125 g ai/ha,0
same,"Plant response rating, Oat, Wild",wild oat (Avena fatua),0
CCn1cc(C(=O)c2ccccc2)c(-c2cc(Br)cc(Br)c2)n1 [Compound 38],"Plant response rating (0 to 100), Johnsongrass",[1]; 62 g ai/ha,0
same,"Plant response rating (0 to 100), Johnsongrass",[1]; 125 g ai/ha,0
same,"Plant response rating, Johnsongrass",[1],0
same,"Plant response rating (0 to 100), Lambsquarters",[2]; 62 g ai/ha,75
same,"Plant response rating (0 to 100), Lambsquarters",[2]; 125 g ai/ha,75
same,"Plant response rating, Lambsquarters",[2],100
same,"Plant response rating (0 to 100), Soybean",soybean (Glycine max); 62 g ai/ha,0
same,"Plant response rating (0 to 100), Soybean",soybean (Glycine max); 125 g ai/ha,0
same,"Plant response rating, Soybean",soybean (Glycine max),0
same,"Plant response rating (0 to 100), Blackgrass",[3]; 31 g ai/ha,0
same,"Plant response rating (0 to 100), Blackgrass",[3]; 62 g ai/ha,0
same,"Plant response rating (0 to 100), Blackgrass",[3]; 125 g ai/ha,0
same,"Plant response rating, Blackgrass",[3],5
same,"Plant response rating (0 to 100), Galium",[4]; 31 g ai/ha,0
same,"Plant response rating (0 to 100), Galium",[4]; 62 g ai/ha,0
same,"Plant response rating (0 to 100), Galium",[4]; 125 g ai/ha,0
same,"Plant response rating, Galium",[4],5
same,"Plant response rating (0 to 100), Crabgrass, Large",[5]; 31 g ai/ha,0
same,"Plant response rating (0 to 100), Crabgrass, Large",[5]; 62 g ai/ha,0
same,"Plant response rating (0 to 100), Crabgrass, Large",[5]; 125 g ai/ha,0
same,"Plant response rating, Crabgrass, Large",[5],0
same,"Plant response rating (0 to 100), Morningglory",[6]; 62 g ai/ha,0
same,"Plant response rating (0 to 100), Morningglory",[6]; 125 g ai/ha,5
same,"Plant response rating, Morningglory",[6],5
same,"Plant response rating (0 to 100), Wheat",[7]; 62 g ai/ha,0
same,"Plant response rating (0 to 100), Wheat",[7]; 125 g ai/ha,0
same,"Plant response rating, Wheat",[7],5
same,"Plant response rating (0 to 100), Nutsedge, Yellow",[8]; 62 g ai/ha,0
same,"Plant response rating (0 to 100), Nutsedge, Yellow",[8]; 125 g ai/ha,0
same,"Plant response rating, Nutsedge, Yellow",[8],0
same,"Plant response rating (0 to 100), Foxtail, Giant",[9]; 31 g ai/ha,0
same,"Plant response rating (0 to 100), Foxtail, Giant",[9]; 62 g ai/ha,0
same,"Plant response rating (0 to 100), Foxtail, Giant",[9]; 125 g ai/ha,0
same,"Plant response rating, Foxtail, Giant",[9],0
same,"Plant response rating (0 to 100), Chickweed",[10]; 31 g ai/ha,20
same,"Plant response rating (0 to 100), Chickweed",[10]; 62 g ai/ha,50
same,"Plant response rating (0 to 100), Chickweed",[10]; 125 g ai/ha,60
same,"Plant response rating, Chickweed",[10],100
same,"Plant response rating (0 to 100), Kochia",kochia (Kochia scoparia); 62 g ai/ha,35
same,"Plant response rating, Kochia",kochia (Kochia scoparia),50
same,"Plant response rating (0 to 100), Oat, Wild",wild oat (Avena fatua); 62 g ai/ha,0
same,"Plant response rating (0 to 100), Oat, Wild",wild oat (Avena fatua); 125 g ai/ha,0
same,"Plant response rating, Oat, Wild",wild oat (Avena fatua),0
CC(C)n1cc(C(=O)c2ccccc2)c(-c2cc(Cl)cc(Cl)c2)n1 [Compound 44],"Plant response rating (0 to 100), Johnsongrass",[1]; 62 g ai/ha,0
same,"Plant response rating (0 to 100), Johnsongrass",[1]; 125 g ai/ha,0
same,"Plant response rating, Johnsongrass",[1],0
same,"Plant response rating (0 to 100), Lambsquarters",[2]; 62 g ai/ha,45
same,"Plant response rating (0 to 100), Lambsquarters",[2]; 125 g ai/ha,45
same,"Plant response rating, Lambsquarters",[2],55
same,"Plant response rating (0 to 100), Soybean",soybean (Glycine max); 62 g ai/ha,5
same,"Plant response rating (0 to 100), Soybean",soybean (Glycine max); 125 g ai/ha,5
same,"Plant response rating, Soybean",soybean (Glycine max),5
same,"Plant response rating (0 to 100), Blackgrass",[3]; 31 g ai/ha,0
same,"Plant response rating (0 to 100), Blackgrass",[3]; 62 g ai/ha,0
same,"Plant response rating (0 to 100), Blackgrass",[3]; 125 g ai/ha,0
same,"Plant response rating, Blackgrass",[3],0
same,"Plant response rating (0 to 100), Galium",[4]; 31 g ai/ha,0
same,"Plant response rating (0 to 100), Galium",[4]; 62 g ai/ha,0
same,"Plant response rating (0 to 100), Galium",[4]; 125 g ai/ha,0
same,"Plant response rating, Galium",[4],0
same,"Plant response rating (0 to 100), Crabgrass, Large",[5]; 31 g ai/ha,0
same,"Plant response rating (0 to 100), Crabgrass, Large",[5]; 62 g ai/ha,5
same,"Plant response rating (0 to 100), Crabgrass, Large",[5]; 125 g ai/ha,5
same,"Plant response rating, Crabgrass, Large",[5],10
same,"Plant response rating (0 to 100), Morningglory",[6]; 62 g ai/ha,0
same,"Plant response rating (0 to 100), Morningglory",[6]; 125 g ai/ha,5
same,"Plant response rating, Morningglory",[6],5
same,"Plant response rating (0 to 100), Wheat",[7]; 62 g ai/ha,0
same,"Plant response rating (0 to 100), Wheat",[7]; 125 g ai/ha,0
same,"Plant response rating, Wheat",[7],0
same,"Plant response rating (0 to 100), Nutsedge, Yellow",[8]; 62 g ai/ha,0
same,"Plant response rating (0 to 100), Nutsedge, Yellow",[8]; 125 g ai/ha,0
same,"Plant response rating, Nutsedge, Yellow",[8],0
same,"Plant response rating (0 to 100), Foxtail, Giant",[9]; 31 g ai/ha,0
same,"Plant response rating (0 to 100), Foxtail, Giant",[9]; 62 g ai/ha,0
same,"Plant response rating (0 to 100), Foxtail, Giant",[9]; 125 g ai/ha,0
same,"Plant response rating, Foxtail, Giant",[9],20
same,"Plant response rating (0 to 100), Chickweed",[10]; 31 g ai/ha,20
same,"Plant response rating (0 to 100), Chickweed",[10]; 62 g ai/ha,35
same,"Plant response rating, Chickweed",[10],50
same,"Plant response rating (0 to 100), Kochia",kochia (Kochia scoparia); 62 g ai/ha,55
same,"Plant response rating (0 to 100), Kochia",kochia (Kochia scoparia); 125 g ai/ha,65
same,"Plant response rating, Kochia",kochia (Kochia scoparia),65
same,"Plant response rating (0 to 100), Oat, Wild",wild oat (Avena fatua); 62 g ai/ha,0
same,"Plant response rating (0 to 100), Oat, Wild",wild oat (Avena fatua); 125 g ai/ha,0
same,"Plant response rating, Oat, Wild",wild oat (Avena fatua),0
